Measured values reported in patent publication US20260356826A1, “SALTS OF AMINO QUINAZOLINE DERIVATIVES” (CHIESI FARMACEUTICI S.P.A., priority 2023, published 2026).
In brackets after ≈: the same amount, converted by molar mass. Entries after “also recorded” stand apart in the source; their conditions may differ. Structures can show the parent of a compound that is named as a salt.

Key:
P2X3 [1] = settings: oral; cited from earlier work
[2] = preclinical models; cited from earlier work
[3] = local delivery; cited from earlier work
P2X3 [4] = settings: disclosed in WO2020239951 A1; cited from earlier work
[5] = Dissolution in Fasted State Simulated Gastric Fluid (FaSSGF), manual experiment, 37 °C; type: physicochemical; settings: for Solubility: 37 °C
Description: The dissolution in Fasted State Simulated Gastric Fluid (FaSSGF) of mesylate salt Form 2 of the compound A of Example 2 and esylate salt Form 1 of Example 6 in comparison with the free base Form A and with other salts was tested by means of manual experiment. The medium for simulated oral fluids was FaSSGF obtained from Biorelevant.com Ltd. The experiments were conducted for 60 minutes at 37 °C.
General preparation of salts: in a round-bottomed flask, 200 mg of compound A free base Form A according to Example 1 (0.52 mmol) were suspended in 5 ml of solvent and stirred at RT. Acetone was employed for bromide, ethanedisulfonate, malonate, sulfate, saccharinate, tosylate, orotate, besylate, hemisulfate, phosphate and tartrate salts; water was employed for chloride salt; ethyl formate was employed for maleate, oxalate, gentisicate, fumarate and mandelate salts; tetrahydrofuran was employed for camphorsulfonate and pamoate salts; isopropyl acetate was employed for 4-hydroxybenzoate and methanol for camphorate salt. The corresponding acid was added under stirring in equimolar amount (except for hemisulfate, added in 0.5 molar amount). After 1 hour the crystalline solid was isolated by filtration, washed with the corresponding solvent (2×1 ml) and dried under nitrogen for 2 hours.
The quantification of the dissolved amount was done by LC/UV system at different checkpoints up to 60 minutes. The saturation solution concentration was around 25-30 mg/ml. […] In a second experiment, the quantification was repeated with saturation solution concentration 170 mg/ml for the mesylate salt Form 2 and 100 mg/ml for the esylate salt Form 1. The results are reported in tables 8A, 8B, 8C, 8D and FIG. 28.

[6] = Comparative stability at 40 °C and 75% RH at open conditions (UPLC/UV and XRPD); type: physicochemical; settings: 40 °C/75% RH open
Description: In a second experiment, approximately 100 mg of compound A mesylate salt Form 2 according to Example 2, free base Form A according to Example 1 and esylate salt Form 1 according to Example 6 were stored in three open amber glass vials covered with filter paper to simulate open conditions. The samples were stored in a stability chamber at 75% RH and 40 °C to compare their stability. At the time points 0, 28, 56, 84 days the corresponding samples were removed from the stability chambers. After conditioning at RT, the samples were analyzed by UPLC/UV and XRPD.

[7] = Two-sector dissolution study (FaSSGF then FaSSIF), parachute effect; type: physicochemical; settings: third experiment
Description: The dissolution behaviour of mesylate salt Form 2 of compound A was studied in a two-sector model in comparison with free base Form A to evaluate a possible “spring-parachute effect”.
The parachute effect is observable in two-sector dissolution studies. A test compound is incubated with FaSSGF and its concentration is monitored over time. FaSSIF is then added to the solution whilst continuing the monitoring. The period of time in which the test compound remains in solution without or before precipitating refers to the supersaturation time and represents the parachute effect.
The experiment was conducted using DISS Profiler 6 Channel Pion. The free base Form A and mesylate salt Form 2 of compound A were each incubated in 8 ml of FaSSGF (pH 1.6) for 20 minutes at the concentration of 350 mg/250 ml. 16 ml of FaSSIF concentrated 1.5× (pH 6.5) was added with an incubation time of 180 minutes. The resulting target pH should be approximately 5-6. The experiment was conducted at 37 °C. The entire dissolution profile was monitored until the end of the experiment to evaluate a possible parachute effect, its duration and to evaluate the maximum solubility reached after the addition of FaSSIF.
A second experiment was conducted, with an additional step of adjusting the pH to 6.5 after FaSSIF addition. Both free base Form A and mesylate salt Form 2 of compound A were tested.
A third experiment was conducted on esylate salt Form 1 of compound A, using the same protocol of the second experiment, with free base Form A and mesylate salt Form 2 of compound A as controls. The experiment was aimed at evaluating comparatively a possible parachute effect of the esylate salt and its duration. Precipitation of the free base was observed after roughly 20 minutes, while precipitation of the esylate salt and mesylate salt were observed after 30 and 40 minutes respectively.

[8] = Dynamic vapour sorption (DVS), hygroscopicity; type: physicochemical; settings: between 20% and 80% RH
Description: Moisture sorption/desorption data were collected on a TA Instruments Vapor Sorption Analyzer Q5000SA.
First step: sorption data was collected in the range 40% to 90% relative humidity (RH).
Second Step: desorption, sorption and desorption data were collected over a range of 0% to 90% RH at 10% RH intervals under a nitrogen purge. Samples were not dried prior to analysis. Equilibrium criteria used for analysis were less than 0.100% weight change in 20 minutes, with a maximum equilibration time of 1 hour if the weight criterion was not met. Data were not corrected for the initial moisture content of the samples. NaBr was used as humidity verification.
Moisture sorption/desorption data were also collected on a ProUmid SnS 23 equipped with a 23 autosampler following Method 1.
In the first step sorption data was collected in the range 0% to 90% RH. Samples were not dried prior to analysis.
In the second Step desorption, sorption and desorption data were collected over a range of 0% to 90% (RH) at 10% RH intervals under a nitrogen purge. Data were not corrected for the initial moisture content of the samples.

[9] = second experiment (saturation conc. 170 mg/ml mesylate, 100 mg/ml esylate), 0 min
[10] = first experiment (saturation conc. around 25-30 mg/ml), 5 min

Row | Structure (SMILES) | Solubility [5, 9] [mg/mL] | Solubility ([5]; second experiment, 60 min) [mg/mL] | Solubility ([5]; second experiment, 15 min) [mg/mL] | Solubility ([5]; second experiment, 30 min) [mg/mL] | other results
1 | COc1cc(C(C)C)c(Oc2cnc(N)nc2N)cc1S(N)(=O)=O [AF-219] |  |  |  |  | Hypersensitivity of the cough reflex (P2X3 [1]): dramatically reduced
2 | Nc1ncnc2c1ncn2[C@@H]1O[C@H](COP(=O)(O)OP(=O)(O)OP(=O)(O)O)[C@@H](O)[C@H]1O [ATP, Adenosine 5-TriPhosphate] |  |  |  |  | Citric acid-evoked and histamine-evoked cough [2]: enhances citric acid-evoked and histamine-evoked cough; Cough and bronchospasm [3]: initiates cough and bronchospasm
3 | COc1cc(-c2ccc(F)cn2)cc2c(N[C@H](C)c3noc(C)n3)ncnc12 [Compound A, (R)-6-(5-fluoropyridin-2-yl)-8-methoxy-N-(1-(5-methyl-1,2,4-oxadiazol-3-yl)ethyl)quinazolin-4-amine] |  |  |  |  | P2X3 inhibition (P2X3 [4]): potent and selective P2X3 inhibitor
4 | COc1cc(-c2ccc(F)cn2)cc2c(N[C@H](C)c3noc(C)n3)ncnc12 [besylate] | 1.01 | 21.84 |  |  | 
5 | COc1cc(-c2ccc(F)cn2)cc2c(N[C@H](C)c3noc(C)n3)ncnc12 [bromide] | 0.72 | 2.88 | 2.52 |  | 
6 | COc1cc(-c2ccc(F)cn2)cc2c(N[C@H](C)c3noc(C)n3)ncnc12 [camphorsulfonate] | 0.51 | 13.45 | 10.51 | 11.84 | 
7 | COc1cc(-c2ccc(F)cn2)cc2c(N[C@H](C)c3noc(C)n3)ncnc12 [chloride] | 0.69 | 10.87 | 8.63 |  | 
8 | COc1cc(-c2ccc(F)cn2)cc2c(N[C@H](C)c3noc(C)n3)ncnc12 [esylate salt Form 1, (R)-6-(5-fluoropyridin-2-yl)-8-methoxy-N-(1-(5-methyl-1,2,4-oxadiazol-3-yl)ethyl)quinazolin-4-amine] |  |  |  |  | Stability ([6]; 84 days): surprisingly good stability during stressed storage; % area main peak (LC/UV) ([6]; 0 days): 99.9 % area; Duration of the parachute effect compared to free base Form A [7]: longer duration of the parachute effect; Time of precipitation ([7]; protocol of the second experiment): 30 min; Solubility ([5]; first experiment (saturation conc. around 25-30 mg/ml), 5 min, listed as esylate Form 1, 5 min): 24.27 mg/mL; Solubility ([5]; first experiment, 10 min, listed as esylate Form 1, 10 min): 24.74 mg/mL; Solubility ([5]; first experiment, 20 min, listed as esylate Form 1, 20 min): 24.87 mg/mL; Solubility ([5]; first experiment, 40 min, listed as esylate Form 1, 40 min): 24.76 mg/mL; Solubility ([5]; first experiment, 60 min): ≥ 25 mg/mL; Solubility ([5]; first experiment, 60 min, listed as esylate Form 1, 60 min): 24.59 mg/mL; Solubility ([5]; second experiment, 30 min, listed as esylate Form 1, 30 min): 61.30 mg/mL; Solubility ([5]; second experiment, 60 min, listed as esylate Form 1, 60 min): 68.46 mg/mL; Solubility compared to free base Form A ([5]; 60 minutes): consistently higher solubility than the free base Form A during the 60 minutes time; Dissolution ([5]; first experiment, saturation conc. around 25-30 mg/ml): completely dissolved
9 | COc1cc(-c2ccc(F)cn2)cc2c(N[C@H](C)c3noc(C)n3)ncnc12 [ethanedisulfonate] | 0.49 | 1.06 |  |  | 
10 | COc1cc(-c2ccc(F)cn2)cc2c(N[C@H](C)c3noc(C)n3)ncnc12 [fumarate] | 0.55 | 5.89 | 4.98 | 5.76 | Solubility [5, 10]: 3.29 mg/mL; Solubility ([5]; first experiment, 10 min): 3.36 mg/mL; Solubility ([5]; first experiment, 20 min): 3.35 mg/mL; Solubility ([5]; first experiment, 40 min): 3.61 mg/mL; Solubility ([5]; first experiment, 60 min): 3.58 mg/mL
11 | COc1cc(-c2ccc(F)cn2)cc2c(N[C@H](C)c3noc(C)n3)ncnc12 [mandelate] | 1.28 (≈ 3370 µM) | 10.99 (≈ 28900 µM) | 10.88 (≈ 28600 µM) | 9.30 (≈ 24400 µM) | 
12 | COc1cc(-c2ccc(F)cn2)cc2c(N[C@H](C)c3noc(C)n3)ncnc12 [mesylate salt Form 6, (R)-6-(5-fluoropyridin-2-yl)-8-methoxy-N-(1-(5-methyl-1,2,4-oxadiazol-3-yl)ethyl)quinazolin-4-amine] |  |  |  |  | Hygroscopicity [8]: No hygroscopicity was noted; also recorded: substantially no hygroscopicity; Total water uptake [8]: 0.3%
13 | COc1cc(-c2ccc(F)cn2)cc2c(N[C@H](C)c3noc(C)n3)ncnc12 [oxalate] | 1.73 | 13.87 | 10.71 | 11.70 | Solubility [5, 10]: 0.09 mg/mL; Solubility ([5]; first experiment, 10 min): 0.09 mg/mL; Solubility ([5]; first experiment, 20 min): 0.08 mg/mL; Solubility ([5]; first experiment, 40 min): 0.09 mg/mL; Solubility ([5]; first experiment, 60 min): 0.09 mg/mL
14 | COc1cc(-c2ccc(F)cn2)cc2c(N[C@H](C)c3noc(C)n3)ncnc12 [pamoate] | 0.03 | 6.52 | 4.89 |  | 
15 | COc1cc(-c2ccc(F)cn2)cc2c(N[C@H](C)c3noc(C)n3)ncnc12 [phosphate] | 0.21 | 14.32 | 15.21 | 14.85 | 
16 | COc1cc(-c2ccc(F)cn2)cc2c(N[C@H](C)c3noc(C)n3)ncnc12 [saccharinate] | 0.43 (≈ 1130 µM) | 0.83 (≈ 2180 µM) | 0.80 (≈ 2100 µM) | 0.87 (≈ 2290 µM) | Solubility [5, 10]: 0.90 mg/mL (≈ 2370 µM); Solubility ([5]; first experiment, 10 min): 1.03 mg/mL (≈ 2710 µM); Solubility ([5]; first experiment, 20 min): 1.09 mg/mL (≈ 2870 µM); Solubility ([5]; first experiment, 40 min): 1.08 mg/mL (≈ 2840 µM); Solubility ([5]; first experiment, 60 min): 1.02 mg/mL (≈ 2680 µM)
17 | COc1cc(-c2ccc(F)cn2)cc2c(N[C@H](C)c3noc(C)n3)ncnc12 [tosylate] | 0.61 | 4.97 | 4.67 | 4.86 | 
